Data published in ChEMBL document CHEMBL4715849, “Recent Progress in the Discovery of Antifungal Agents Targeting the Cell Wall” (J Med Chem, 2020).
Converted amounts (≈) assume the structure as drawn.

Assays:
[1] = tested on: Candida albicans; experiment: Antifungal activity against Candida albicans AMB-25 incubated for 48 hrs by serial two-fold dilution method; format: functional
[2] = tested on: Candida albicans; experiment: Antifungal activity against Candida albicans ATCC 262 incubated for 24 hrs by turbidimetric method; format: functional
[3] = tested on: Candida albicans; experiment: Antifungal activity against Candida albicans incubated for 24 hrs by turbidimetric method; format: functional
[4] = Inhibition of Candida albicans IFO1060 1,3-beta-D-glucan synthase
[5] = tested on: Candida albicans; experiment: Antifungal activity against Candida albicans infected in mouse assessed as protection against fungus-induced lethal infection; format: functional; conditions: read-out: PD50
[6] = Inhibition of fungi 1,3-beta-D-glucan synthase
[7] = tested on: Aspergillus fumigatus; experiment: Antifungal activity against Aspergillus fumigatus CF1083 infected in iv dosed mouse model of pulmonary aspergillosis administered once daily for 4 days and measured on day 14; format: functional; conditions: 336 h, time 14 day
[8] = tested on: Candida albicans; experiment: Antifungal activity against Candida albicans K335 by agar incorporation method; format: functional
[9] = tested on: Candida albicans; experiment: Antifungal activity against Candida albicans K341 by agar incorporation method; format: functional
[10] = tested on: Candida albicans; experiment: Antifungal activity against Candida albicans K1082 by agar incorporation method; format: functional
[11] = tested on: Candida albicans; experiment: Antifungal activity against Candida albicans K1133 by agar incorporation method; format: functional
[12] = tested on: Meyerozyma guilliermondii; experiment: Antifungal activity against Candida guilliermondii K334 by agar incorporation method; format: functional
[13] = tested on: Candida tropicalis; experiment: Antifungal activity against Candida tropicalis K337 by agar incorporation method; format: functional
[14] = tested on: Candida tropicalis; experiment: Antifungal activity against Candida tropicalis K1155 by agar incorporation method; format: functional
[15] = tested on: Candida parapsilosis; experiment: Antifungal activity against Candida parapsilosis K332 by agar incorporation method; format: functional; conditions: Lodderomyces parapsilosis
[16] = tested on: Candida parapsilosis; experiment: Antifungal activity against Candida parapsilosis K1154 by agar incorporation method; format: functional; conditions: Lodderomyces parapsilosis
[17] = tested on: Cyberlindnera jadinii; experiment: Antifungal activity against Candida utilis K482 by agar incorporation method; format: functional; conditions: Williopsis jadinii
[18] = tested on: Pichia kudriavzevii; experiment: Antifungal activity against Candida krusei K1153 by agar incorporation method; format: functional

COC(=O)/C=C/C(=O)NC[C@H](N)C(=O)N[C@@H](CC(C)C)C(=O)O
MIC [1]: 0.4 µg/mL (≈ 1.21 µM)

CCC[C@H](NC(=O)[C@H](CNC(=O)/C=C/C(=O)OC)NC(=O)[C@@H](N)CCC)C(=O)O
MIC [2]: 0.05 µg/mL (≈ 0.121 µM) | MIC [3]: 0.025 µg/mL (≈ 0.0603 µM)

COC(=O)/C=C/C(=O)NC[C@H](NC(=O)[C@H](C)N)C(=O)N[C@@H](C)C(=O)O
MIC [2]: 0.025 µg/mL (≈ 0.0698 µM) | MIC [3]: 0.025 µg/mL (≈ 0.0698 µM)

CCC[C@H](NC(=O)[C@@H](N)CCCCN)C(=O)N[C@@H](CNC(=O)/C=C/C(=O)OC)C(=O)O
MIC [2]: 0.025 µg/mL (≈ 0.0564 µM) | MIC [3]: 0.025 µg/mL (≈ 0.0564 µM)

CCCCC(N)C(=O)N[C@@H](CNC(=O)/C=C/C(=O)OC)C(=O)O (stereo partly drawn)
MIC [1]: 0.4 µg/mL (≈ 1.21 µM)

CCCCCCCCCCCCC[C@H]1OC(=O)[C@H](CCCNC(=O)[C@@H](N)CCCN)NC(=O)[C@@H]([C@@H](C)O)NC(=O)CNC(=O)[C@H]([C@H](O)CC(N)=O)NC(=O)[C@H]2[C@@H](O)CCN2C(=O)[C@H]([C@@H](C)O)NC(=O)[C@@H]2C[C@@H](O)CN2C(=O)[C@H](C(C)C)NC(=O)[C@H](Cc2ccc(O)cc2)NC(=O)[C@@H](C)NC(=O)[C@H]([C@@H](C)O)NC1=O
IC50 [4]: 8 nM

COC(=O)/C=C/C(=O)NC[C@H](N)C(=O)N[C@@H](CCSC)C(=O)O
MIC [1]: 0.4 µg/mL (≈ 1.15 µM)

COc1cc(O)c2c(c1)C(=O)c1c(cc3c(c1O)-c1c(cc(C)c(C(=O)NC(C)C(=O)O)c1O)[C@H](O[C@@H]1O[C@H](C)[C@H](O)[C@H](O[C@@H]4OC[C@@H](O)[C@H](O)[C@H]4O)[C@H]1O)[C@H]3O)C2=O (stereo partly drawn)
ED50 [5]: 71 mg/kg

CCCCCCCCCCCCC[C@H]1OC(=O)[C@H](CCCN(CCN)C(=O)[C@H](CCCN)N(CCN)CCN)NC(=O)[C@@H]([C@@H](C)O)NC(=O)CNC(=O)[C@H]([C@H](O)CC(N)=O)NC(=O)[C@H]2[C@@H](O)CCN2C(=O)[C@H]([C@@H](C)O)NC(=O)[C@@H]2C[C@@H](O)CN2C(=O)[C@H](C(C)C)NC(=O)[C@H](Cc2ccc(O)cc2)NC(=O)[C@@H](C)NC(=O)[C@H]([C@@H](C)O)NC1=O
IC50 [6]: 0.2 nM | ED50 [7]: 5.2 mg/kg

COC(=O)/C=C/C(=O)NC[C@H](N)C(=O)N[C@@H](CCSC)C(=O)N[C@@H](C)C(=O)O
MIC [2]: 0.025 µg/mL (≈ 0.0597 µM) | MIC [3]: 0.025 µg/mL (≈ 0.0597 µM)

COC(=O)/C=C/C(=O)NC[C@H](NC(=O)[C@H](N)Cc1ccc(O)cc1)C(=O)O
MIC [1]: 0.4 µg/mL (≈ 1.05 µM)

COC(=O)/C=C/C(=O)NC[C@H](NC(=O)[C@H](CCSC)NC(=O)[C@@H](N)CNC(=O)/C=C/C(=O)OC)C(=O)O
MIC [2]: 0.025 µg/mL (≈ 0.0458 µM) | MIC [3]: 0.025 µg/mL (≈ 0.0458 µM)

COC(=O)/C=C/C(=O)NC[C@H](N)C(=O)N[C@@H](Cc1ccccc1)C(=O)O
MIC [1]: 0.4 µg/mL (≈ 1.1 µM)

CCC(O)/C=C/C=C/C=C/C(=O)OC[C@H]1O[C@@H](O[C@H]2[C@H](OC(=O)/C=C/C=C/C[C@H](O)/C(C)=C/C=C/CC[C@@H](C)CC)[C@@H](O)[C@@]3(OCc4cc(O)cc(O)c43)O[C@@H]2CO)[C@H](O)[C@@H](O)[C@H]1O (stereo partly drawn)
MIC [8]: 0.1 µg/mL (≈ 0.111 µM) | MIC [9]: 0.1 µg/mL (≈ 0.111 µM) | MIC [10]: 0.1 µg/mL (≈ 0.111 µM) | MIC [11]: 0.1 µg/mL (≈ 0.111 µM) | MIC [12]: 0.1 µg/mL (≈ 0.111 µM) | MIC [13]: 0.1 µg/mL (≈ 0.111 µM) | MIC [14]: 0.1 µg/mL (≈ 0.111 µM) | MIC [15]: 0.1 µg/mL (≈ 0.111 µM) | MIC [16]: 0.1 µg/mL (≈ 0.111 µM) | MIC [17]: 0.1 µg/mL (≈ 0.111 µM) | MIC [18]: 0.1 µg/mL (≈ 0.111 µM)

COc1cc(O)c2c(c1)C(=O)c1c(cc3c(c1O)-c1c(cc(C)c(C(=O)N[C@H](CO)C(=O)O)c1O)[C@H](O[C@@H]1O[C@H](C)[C@H](O)[C@H](O[C@@H]4OC[C@@H](O)[C@H](O)[C@H]4O)[C@H]1O)[C@H]3O)C2=O
ED50 [5]: 33 mg/kg

CCC(N)C(=O)N[C@@H](CNC(=O)/C=C/C(=O)OC)C(=O)O (stereo partly drawn)
MIC [1]: 0.4 µg/mL (≈ 1.33 µM)

CCCCCCCCCCCCC[C@H]1OC(=O)[C@H](CCCN(CCCN)C(=O)[C@@H](CCCN)N(CCN)CCN)NC(=O)[C@@H]([C@@H](C)O)NC(=O)CNC(=O)[C@H]([C@H](O)CC(N)=O)NC(=O)[C@H]2[C@@H](O)CCN2C(=O)[C@H]([C@@H](C)O)NC(=O)[C@@H]2C[C@@H](O)CN2C(=O)[C@H](C(C)C)NC(=O)[C@H](Cc2ccc(O)cc2)NC(=O)[C@@H](C)NC(=O)[C@H]([C@@H](C)O)NC1=O
IC50 [6]: 0.28 nM | ED50 [7]: 5.2 mg/kg

COC(=O)/C=C/C(=O)NC[C@H](N)C(=O)N[C@@H](Cc1ccc(O)cc1)C(=O)O
MIC [1]: 0.4 µg/mL (≈ 1.05 µM)

CCCCCCCCCCCCC[C@H]1OC(=O)[C@H](CCCNC(=O)[C@@H](CCCN)N(CCN)CCN)NC(=O)[C@@H]([C@@H](C)O)NC(=O)CNC(=O)[C@H]([C@H](O)CC(N)=O)NC(=O)[C@H]2[C@@H](O)CCN2C(=O)[C@H]([C@@H](C)O)NC(=O)[C@@H]2C[C@@H](O)CN2C(=O)[C@H](C(C)C)NC(=O)[C@H](Cc2ccc(O)cc2)NC(=O)[C@@H](C)NC(=O)[C@H]([C@@H](C)O)NC1=O
IC50 [6]: 0.9 nM | ED50 [7]: 5.2 mg/kg

CCCCCCCCCCCCC[C@H]1OC(=O)[C@H](CCCNC(=O)[C@H](N)CCCN)NC(=O)[C@@H]([C@@H](C)O)NC(=O)CNC(=O)[C@H]([C@H](O)CC(N)=O)NC(=O)[C@H]2[C@@H](O)CCN2C(=O)[C@H]([C@@H](C)O)NC(=O)[C@@H]2C[C@@H](O)CN2C(=O)[C@H](C(C)C)NC(=O)[C@H](Cc2ccc(O)cc2)NC(=O)[C@@H](C)NC(=O)[C@H]([C@@H](C)O)NC1=O
IC50 [4]: 5 nM
